Source: paper PMC12199414, “A Self‐Assembling LYTAC Mediates CTGF Degradation and Remodels Inflammatory Tumor Microenvironment for Triple‐Negative Breast Cancer Therapy” (Advanced Science, 2025)

What was measured:
MDA‐MB‐231 tumor = assay: Orthotopic xenograft MDA‐MB‐231 tumor model; format: in vivo, BALB/c nude mice
Procedure: For the orthotopic xenograft MDA‐MB‐231 tumor model, 3 × 10^6 cells were injected into the fourth pair of breast pads on the left side of the female nude mice (4–6 weeks old). To evaluate the antitumor effect of NanoCLY in vivo, the mice were treated with 10 mg kg^−1 NanoCLY daily once the tumor volume reached ≈50 mm^3, with CL8 peptide (10 mg kg^−1, daily) and FG‐3019 (30 mg kg^−1, every 3 days) as the positive control group and PBS as negative control group. The dose selection and administration frequency of NanoCLY were based on both references to previously reported protein degrader studies with similar mechanisms and effective concentrations,^[ [28], [54], [58] ^] and our preliminary in vivo dose‐escalation experiments. […] Based on this, 10 mg kg^−1 was selected for subsequent experiments. As for FG‐3019, the 30 mg kg^−1 dose was chosen based on previous studies.^[ [43], [59] ^] To evaluate the advantages of degradation strategies in vivo, the mice were treated with 10 mg kg^−1 NanoCLY daily with Nano@CL8 (10 mg kg^−1, daily) and PBS as control group. To evaluate the antitumor effect of combination therapy in vivo, the mice were treated with NanoCLY (10 mg kg^−1, daily), PTX (5 mg kg^−1, every two days), and PTX plus NanoCLY. […]

MDA‐MB‐231‐Luc cells = assay: Lung metastasis model; format: in vivo, BALB/c nude mice; conditions: 10 mg kg^−1 i.v. every 2 days, 12 times, bioluminescence day 12, 18, 24, n = 3
Procedure: Exponentially grown 5 × 10^5 MDA‐MB‐231‐Luc cells were suspended in 100 µL of PBS and intravenously injected into female nude BALB/c mice. The mice were randomly divided into […] (n = 3) and treated with PBS, 10 mg kg^−1 NanoCLY via intravenous injection every 2 days for 12 times in total. The growth of lung metastatic tumors was monitored by VISQUE In Vivo Elite after intraperitoneal injection of 20 mg kg^−1 D‐luciferin on day 12, day 18, and day 24. At the end of monitoring on day 24, the lungs were photographed and fixed, and H&E staining. Metastatic areas on the lung surface were quantified by ImageJ software.

With “C12-CPSAAHYL-PEG3-[Pra(M6P)βAla]3-NH2 [NanoCLY, CL8-M6P3 joined to a lauryl chain via disulfide; self-assembling GSH-responsive LYTAC nanoparticle]” the “tumor growth inhibition (TGI)” value (MDA‐MB‐231 tumor; 10 mg kg^−1 daily i.v., n = 6) was 59.62% and ≈ 60%, the tumor inhibition rate (MDA‐MB‐231 tumor; preliminary in vivo dose-escalation experiments, 10 mg kg^−1) was “over 50%” and the “lung colonization by MDA-MB-231 cells” value (MDA‐MB‐231‐Luc cells) was “significantly reduced lung colonization”.
